Series [1] has as its system G4-Apt (DNA, G4) AGGGACGGGACCGTCTTCCAGACAAGAGTGCAGGGAGGGACGGGA
The experiment in a line: biolayer interferometry (Octet RED96). Conditions: binding buffer (composition not given), 25 °C.

Series [2] has as its system anti-VEGF165 aptamer (DNA, aptamer) CCGTCTTCCAGACAAGAGTGCAGGG
The experiment in a line: biolayer interferometry (Octet RED96). Conditions: binding buffer (composition not given), 25 °C.

In another series the target is VEGF165 (human, UniProt P15692-4 27-191). Kind of series: BLI; BLI (Octet RED96), 25 C, 1000 rpm, 200 uL binding buffer (composition not given), VEGF165 6.25-100 nM, BSA blank as reference. Particulars: protein: commercial, chain copies: 2.
Chain of VEGF165 (P15692 other isoform, or with tags, fused parts or gaps): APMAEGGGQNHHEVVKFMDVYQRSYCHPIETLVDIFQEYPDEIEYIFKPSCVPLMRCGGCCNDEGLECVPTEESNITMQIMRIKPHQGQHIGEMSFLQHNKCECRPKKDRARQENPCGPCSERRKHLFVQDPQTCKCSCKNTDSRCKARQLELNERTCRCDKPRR

Take `Cc1ccc2c(c1)sc(-c1ccc(N(C)C)cc1)[n+]2C`: the “K D” value in series [1] amounted to 52900 nM. The binding entry in series [2] was “no”.

B1: anti-VEGF165 aptamer (ssDNA)
DNA: CCGTCTTCCAGACAAGAGTGCAGGG
With B1, binding in the series with VEGF165 (B-DNA form by CD) was put at a Kd of 0.287 nM.

B2: G4-Apt (structured_DNA)
DNA: AGGGACGGGACCGTCTTCCAGACAAGAGTGCAGGGAGGGACGGGA
Take B2: in the series with VEGF165 (largely parallel G-quadruplex by CD), binding was put at a Kd of 0.538 nM.

These data come from paper PMC8636943.
